Experimental data: patent US20220401428A1, “Method for Treatment of Alzheimer's Disease” (University of Kentucky Research Foundation, priority 2019, published 2022)
“Also recorded” adds a separate entry of the source.

Key:
LRP1 = LRP1 protein expression in rat brain microvascular ECs (Western blot, immunofluorescence); type: cell-based; settings: ECs, 24 hours, Western blot
Description: To study the role of miRNA signaling in amylin-induced suppression of endothelial LRP1 expression, transfection of rat brain microvascular ECs was used with miR-103-3p (MCR01039)[…](SEQ ID NO: 5), miR-107-3p (MCR01045)[…](SEQ ID NO: 6) and control (MCH00000) (https://www.abmgood.com/mirna-mimic-negative-control-mch00000.html). Antagomir miR-103-3p (IH-320345-05-0005)(SEQ ID NO: 5), miR-107-3p (IH-320348-05-0005)(SEQ ID NO: 6) and negative control (IN-001005-01-05) (https://www.biocompare.com/22445-RNA/4995709-miRIDIAN-microRNA-Hairpin-Inhibitor-Negative-Control-1-5-nmol/#productspecs) (Dharmacon Inc.) were used in an attempt to rescue LRP1 expression. All transfections were done using RNAiMAX (Invitrogen) as per manufacturer's recommended protocol. Briefly, ECs were plated at 50% confluency in 6-well plates followed by co-transfection with either 100 nM of 103-3p and 107-3p mimics or antagomirs along with their respective negative controls. After 12-hours, antagomir-treated cell groups were further treated with 10 uM human amylin for 24-hours. After 36-hours of transfection, cells were harvested for Western blot analysis.
In immunofluorescence experiments, formalin-fixed, paraffin-embedded human brain tissue was used and processed as previously described^16,18,39, brain capillaries from HIP and WT rats isolated as previously described^18. and cultured ECs. Anti-amylin (1:200; clone E5; SC-377530; Santa Cruz), anti-collagen IV (1:500; ab6586; abcam), anti-alpha smooth muscle actin-Alexa Fluor 405 (1:200; ab210128, abcam), anti-caveolin-1 (1:100; sc-894; Santa Cruz, Tex.), anti-LRP1 (1:500; sc-57351; Santa Cruz), anti-4HNE (1:200; ab46545; abcam) were the primary antibodies. Secondary antibodies were: Alexa Fluor 488 conjugated anti-mouse IgG (1:300; A11029; Invitrogen), Alexa Fluor 568 conjugated anti-rabbit IgG (1:200; A11036; Invitrogen), Alexa Fluor 568 conjugated anti-mouse IgG (1:300; A11004; Invitrogen). Nuclei were counterstained with DAPI mounting media. For triple staining of human brain tissues, smooth muscle actin-Alexa Fluor 405 antibody was added after staining with human amylin and collagen IV; DAPI free mounting media was used. For Thioflavin S staining, after secondary antibody incubation, brain slides were incubated in 0.5% Thioflavin S for 30 minutes at room temperature. Slides were then incubated for 3 minutes in 70% ethanol, 5 minutes in 0.2% Sudan black before washing and mounting. Immunocytochemistry was performed as described previously (39, 40).
Western blot analysis was performed on isolated brain capillaries, brain tissue homogenate and plasma from rats. Tissues were processed as described previously^16,18,28,39. RIPA buffer with 2% SDS was used to retrieve Aβ monomers from frozen brain samples^41. […]

LRP1 mRNA = LRP1 mRNA levels in ECs by qRT-PCR; type: cell-based; settings: 10 μM, vs control cells and ECs incubated with rat amylin
Description: (§1) Total RNA was isolated using RNAqueous total RNA isolation kit according to manufacturer's protocol (Invitrogen, AM1914). cDNA synthesis and amplification were done using iTaq Universal SYBR Green One-Step Kit (Biorad; 1725151) with the following primer sequences: LRP1: forward (Fwd) 5′-[…]-3′(SEQ ID NO: 7), reverse (Rev) 5′-[…]-3′(SEQ ID NO: 8); and GAPDH: Fwd 5′- […]-3′(SEQ ID NO: 9), Rev 5′-GTTTGCTCCAACCAACTGC-3′(SEQ ID NO: 10) (IDT, Inc, USA). For miRNA quantification, cDNA was synthesized from total RNA using miRNA cDNA synthesis kit with poly (A) polymerase (ABMgood, G902). cDNA was amplified using SYBR Green mastermix (Biorad) along with miRNA specific primers from (rno-miR-103-3p, MPR00332; rno-miR-107-3p, MPRO0335; RNU6 house Keeping gene, MP-r99998) (ABMgood). Data were analyzed using the 2^−ΔΔCt method, and experiments were normalized to GAPDH or U6 miRNA

[1] = system: rat brain microvascular endothelial cells; assay: MTS cytotoxicity assay on ECs; type: cell-based; settings: 500 nM, 1 μM, 5 μM and 10 μM, 24 hours
Description: CellTiter 96® AQueous One Solution Cell Proliferation Assay (MTS) (Promega) was used to assess cytotoxicity of aggregated amylin on the EC monolayer.

EC monolayer [2] = assay: Structural integrity of the EC monolayer in the in vitro BBB model (TEER, FITC-Dextran, morphology); type: cell-based, rat; settings: 10 μM, 24 hours
Description: (§2) In vitro BBB model of Aβ42 transcytosis with amylin-induced stress at the blood side. An in vitro BBB model described previously^37 was used with modifications related to amylin deposition on the EC monolayer and consequent effects on the Aβ transport across the EC monolayer. Briefly, primary rat brain microvascular endothelial cells (Cell Applications Inc) were plated on 24-well Transwell-Clear inserts with 0.4 μm pore polycarbonate membrane (Costar, Corning, N.Y., USA) and primary rat brain astrocytes (Sigma) were cultured at the bottom wells. Barrier integrity was measured from the trans-endothelial electrical resistance (TEER) as described previously^37,38 using the EVOM2 meter with STX-3 electrodes (World Precision Instruments). Maximum TEER was achieved within 8-10 days in culture. BBB permeabilities to human amylin (10 μM; Anaspec; AS-60254-1), rat amylin (10 μM; American Peptide) and DMSO (1 mM; vehicle) were assessed using FITC-Dextran 4 kDa (Fisher Scientific) diluted in Hank's Balanced Salt Solution (HBSS) buffer with 0.1% BSA (HBSS-BSA) as a paracellular diffusion marker. Permeability coefficients were calculated using the formula; P=(ΔQ/Δt)/(A*C0), (ΔQ/Δt)=rate of FITC-Dextran change; A=surface area of insert (0.33cm^2); C0=Initial FITC-Dextran input.

EC monolayer [3] = assay: Aβ42 transcytosis across the in vitro BBB model; type: cell-based, rat; settings: 10 μM at the luminal side for 24 hours, then Aβ42-FAM at the abluminal side for 1 hour; vs vehicle; P<0.05
Description: as §2, with “input. […]” for “input.”

[4] = system: rat brain microvascular ECs; assay: Lipid peroxidation and ROS in cultured rat brain microvascular ECs; type: cell-based; settings: 10 μM amylin, 24-hour incubation
Description: Lipid peroxidation and ROS were measured in cultured rat brain microvascular ECs using previously published protocols^26,39.

miR-103 and miR-107 = miR-103 and miR-107 expression in ECs by qRT-PCR; type: cell-based, rat; settings: ECs incubated with human amylin
Description: as §1

For human amylin, the “reduction of LRP1 expression” value (LRP1; 10 μM) was “more than 50%”, the “LRP1 protein levels against concentration” value (LRP1; various concentrations (500 nM to 10 μM)) was “decreased with increasing concentrations” and the “LRP1 mRNA levels” value (LRP1 mRNA) was “greatly elevated”. For the same substance, the “viability of the ECs” value [1] was “not significant; also recorded: not affected”, the EC monolayer morphology (EC monolayer [2]) was “neither the intercellular space, as assessed from FITC-dextran permeability (FIG. S4C-D), nor EC monolayer morphology (FIG. 18E) were significantly altered” and the TEER (EC monolayer [2]) was “decreased”. The “intercellular space assessed from FITC-dextran (4 kDa) permeability” value (EC monolayer [2]) was “neither the intercellular space, as assessed from FITC-dextran permeability (FIG. S4C-D), nor EC monolayer morphology (FIG. 18E) were significantly altered”, the “reduction of the Aβ transcytosis quotient” value (EC monolayer [3]) was 20+5% and the “generation of ROS” value [4] was “increased generation of ROS”. The “lipid peroxidation of the EC membranes” value [4] was “lipid peroxidation of the EC membranes” and the “miR-103 and miR-107 levels” value (miR-103 and miR-107) was “elevated levels of miR-103 and miR-107”.
